Data as given in the NIST ThermoML archive (doi:10.1007/s10765-012-1309-7).
Numbers after ± are expanded uncertainties.

Conditions: Liquid, Capillary tube (Ostwald / Ubbelohde) method

## CC(C)C [2-methylpropane]
285.13 K
  kinematic viscosity: 3.1e-07 ± 9.6e-09 m2/s
290.11 K
  kinematic viscosity: 2.95e-07 ± 9.1e-09 m2/s
295.11 K
  kinematic viscosity: 2.87e-07 ± 8.9e-09 m2/s
300.41 K
  kinematic viscosity: 2.72e-07 ± 8.4e-09 m2/s
303.37 K
  kinematic viscosity: 2.67e-07 ± 8.3e-09 m2/s
309.08 K
  kinematic viscosity: 2.55e-07 ± 7.9e-09 m2/s
313.12 K
  kinematic viscosity: 2.46e-07 ± 7.6e-09 m2/s
315.07 K
  kinematic viscosity: 2.42e-07 ± 7.5e-09 m2/s
318.2 K
  kinematic viscosity: 2.38e-07 ± 7.4e-09 m2/s
320.12 K
  kinematic viscosity: 2.35e-07 ± 7.3e-09 m2/s
323.83 K
  kinematic viscosity: 2.25e-07 ± 7e-09 m2/s
326.11 K
  kinematic viscosity: 2.21e-07 ± 6.9e-09 m2/s
330.11 K
  kinematic viscosity: 2.14e-07 ± 6.7e-09 m2/s
333.14 K
  kinematic viscosity: 2.07e-07 ± 6.4e-09 m2/s
335.12 K
  kinematic viscosity: 2.09e-07 ± 6.5e-09 m2/s
340.12 K
  kinematic viscosity: 1.97e-07 ± 6.2e-09 m2/s
340.15 K
  kinematic viscosity: 1.97e-07 ± 6.2e-09 m2/s
345.15 K
  kinematic viscosity: 1.9e-07 ± 5.9e-09 m2/s

## CCF [fluoroethane]
233.15 K
  kinematic viscosity: 2.93e-07 ± 9.1e-09 m2/s
238.15 K
  kinematic viscosity: 2.81e-07 ± 8.7e-09 m2/s
243.15 K
  kinematic viscosity: 2.7e-07 ± 8.4e-09 m2/s
248.11 K
  kinematic viscosity: 2.58e-07 ± 8e-09 m2/s
253.15 K
  kinematic viscosity: 2.46e-07 ± 7.7e-09 m2/s
258.12 K
  kinematic viscosity: 2.37e-07 ± 7.4e-09 m2/s
263.17 K
  kinematic viscosity: 2.28e-07 ± 7.1e-09 m2/s
268.16 K
  kinematic viscosity: 2.17e-07 ± 6.8e-09 m2/s
273.16 K
  kinematic viscosity: 2.09e-07 ± 6.5e-09 m2/s
278.16 K
  kinematic viscosity: 2.01e-07 ± 6.3e-09 m2/s
283.15 K
  kinematic viscosity: 1.92e-07 ± 6e-09 m2/s
288.13 K
  kinematic viscosity: 1.85e-07 ± 5.8e-09 m2/s
293.18 K
  kinematic viscosity: 1.78e-07 ± 5.6e-09 m2/s
298.15 K
  kinematic viscosity: 1.72e-07 ± 5.4e-09 m2/s
303.12 K
  kinematic viscosity: 1.66e-07 ± 5.2e-09 m2/s
308.11 K
  kinematic viscosity: 1.62e-07 ± 5.1e-09 m2/s
313.15 K
  kinematic viscosity: 1.54e-07 ± 4.9e-09 m2/s
318.15 K
  kinematic viscosity: 1.51e-07 ± 4.8e-09 m2/s
320.16 K
  kinematic viscosity: 1.49e-07 ± 4.7e-09 m2/s
328.16 K
  kinematic viscosity: 1.41e-07 ± 4.5e-09 m2/s
333.15 K
  kinematic viscosity: 1.37e-07 ± 4.3e-09 m2/s
338.15 K
  kinematic viscosity: 1.31e-07 ± 4.2e-09 m2/s
343.13 K
  kinematic viscosity: 1.28e-07 ± 4.1e-09 m2/s
348.15 K
  kinematic viscosity: 1.23e-07 ± 3.9e-09 m2/s
353.17 K
  kinematic viscosity: 1.21e-07 ± 3.8e-09 m2/s
355.16 K
  kinematic viscosity: 1.2e-07 ± 3.8e-09 m2/s
360.16 K
  kinematic viscosity: 1.16e-07 ± 3.7e-09 m2/s
366.08 K
  kinematic viscosity: 1.12e-07 ± 3.6e-09 m2/s
371.36 K
  kinematic viscosity: 1.08e-07 ± 3.5e-09 m2/s
